Assay results as given in patent publication US20240058457A1, “BTK DEGRADER” (Newave Pharmaceutical Inc., priority 2020, published 2024).

How the values were obtained:
Mice PK study = type: in vivo; conditions: CD-1 mouse; for AUCinf(h*ng/mL)/(mg/kg): plasma, route not stated in table (text: oral PK profile)
Description: The pharmacokinetics of compounds were evaluated in CD-1 mouse via Intravenous and Oral Administration. The IV dose was administered as a slow bolus in the Jugular vein, and oral doses were administered by gavage. The formulation for IV dosing is 5% DMSO in 20% HPBCD in water, and the PO formulation is 2.5% DMSO, 10% EtOH, 20% Cremphor EL, 67.5% D5W. The PK time point for the IV arm was 5, 15, 30 min, 1, 2, 4, 6, 8, 12, 24 hours post dose, and for PO arm was 15, 30 min, 1, 2, 4, 6, 8, 12, 24 hours post dose. Approximately 0.03 mL blood was collected at each time point. Blood of each sample was transferred into plastic micro centrifuge tubes containing EDTA-K2 and plasma was collected within 15 min by centrifugation at 4000 g for 5 minutes in a 4° C. centrifuge. Plasma samples were stored in polypropylene tubes. The samples were stored in a freezer at −75±15° C. prior to analysis. Concentrations of compounds in the plasma samples were analyzed using a LC-MS/MS method. WinNonlin (Phoenix™, version 6.1) or other similar software was used for pharmacokinetic calculations. The following pharmacokinetic parameters were calculated, whenever possible from the plasma concentration versus time data: IV administration: C0, CL, Vd, T1/2, AUCinf, AUClast, MRT, Number of Points for Regression; PO administration: Cmax, Tmax, T1/2, AUCinf, AUClast, F %, Number of Points for Regression. The pharmacokinetic data was described using descriptive statistics such as mean, standard deviation. Additional pharmacokinetic or statistical analysis was performed at the discretion of the contributing scientist, and was documented in the data summary.

BTK = molecular target: T1, BTK (Homo sapiens, UniProt Q06187); assay: BTK HTRF degradation assay; type: cell-based; conditions: treatment time 24 h; Cisbio Total-BTK HTRF; Rec-1 / Ramos cells
T1 construct: endogenous in cells; host or cells: Rec-1 cells (ATCC) / Ramos cells
T1 sequence (Q06187 whole entry): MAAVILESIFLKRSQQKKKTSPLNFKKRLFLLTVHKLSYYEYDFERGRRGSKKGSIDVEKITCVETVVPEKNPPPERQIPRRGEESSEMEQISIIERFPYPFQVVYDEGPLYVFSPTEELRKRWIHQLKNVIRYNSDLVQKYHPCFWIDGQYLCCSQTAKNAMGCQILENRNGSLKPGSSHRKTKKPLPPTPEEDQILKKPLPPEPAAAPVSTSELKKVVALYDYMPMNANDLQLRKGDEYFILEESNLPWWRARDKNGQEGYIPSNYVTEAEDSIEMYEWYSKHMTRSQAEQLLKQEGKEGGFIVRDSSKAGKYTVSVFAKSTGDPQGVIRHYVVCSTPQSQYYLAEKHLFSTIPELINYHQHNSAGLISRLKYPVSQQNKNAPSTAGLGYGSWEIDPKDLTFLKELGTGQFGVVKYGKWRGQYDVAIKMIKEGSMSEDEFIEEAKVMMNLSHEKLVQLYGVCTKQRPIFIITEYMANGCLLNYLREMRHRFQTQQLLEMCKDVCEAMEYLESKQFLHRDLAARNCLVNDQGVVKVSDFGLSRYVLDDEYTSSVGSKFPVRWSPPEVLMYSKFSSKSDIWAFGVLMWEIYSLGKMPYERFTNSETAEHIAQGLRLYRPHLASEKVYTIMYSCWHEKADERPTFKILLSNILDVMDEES
Description: Rec-1 cells were obtained from American Type Culture Collection and were grown in RPMI-1640 media (ATCC, 30-2001) supplemented with 10% heat-inactivated FBS (Corning Premium Fetal Bovine Serum from Fisher, MT35015CV). Compounds of the present invention were added to 50,000 Ramos cells in round-bottom 96 well plates with a final DMSO concentration of […] and were incubated at 37° C. 5% CO2 for different time. BTK levels were determined using Cisbio Total-BTK HTRF ([…] Time-Resolved Fluorescence) kit (63ADK064PEG) according to manufacturer's protocol. Briefly, cells were incubated in 1× supplied lysis buffer for 30 minutes. In an opaque white low volume 96 well plate (Cisbio, 66PL96005), cell lysate was combined with two different specific BTK antibodies, one conjugated with Eu3+-Cryptate FRET donor and one conjugated with d2 FRET acceptor. Assay controls include wells containing cell lysate with only the Eu3+-Cryptate FRET donor antibody and wells containing both HTRF antibodies and lysis buffer without cells or control lysate provided by Cisbio. HTRF ratio was calculated as (acceptor signal at 665 nm/donor signal at 620 nm)×[…]. Background HTRF levels were determined from the control well containing the donor, but no acceptor, antibody. Background HTRF levels were subtracted from all samples. Readouts were reported as HTRF levels relative to HTRF levels of DMSO-treated cells. Four-parameter non-linear regressions were performed in GraphPad Prism 7.02 to obtain DC50 values.

C[C@H]1CN(C2CCN(c3ccc4c(c3)C(=O)N(C3CCC(=O)NC3=O)C4=O)CC2)CCN1c1ccc(Nc2cc(-c3ccnc(N4CCn5c(cc6c5CC(C)(C)C6)C4=O)c3CO)cn(C)c2=O)nc1 (stereo partly drawn) [Example 2, 5-{4-[(3S)-4-{6-[(2′-{4,4-dimethyl-9-oxo-1,10-diazatricyclo[6.4.0.0^{2,6}]dodeca-2(6),7-dien-10-yl}-3′-(hydroxymethyl)-1-methyl-6-oxo-[3,4′-bipyridin]-5-yl)amino]pyridin-3-yl}-3-methylpiperazin-1-yl]piperidin-1-yl}-2-(2,6-dioxopiperidin-3-yl)isoindole-1,3-dione]
AUCinf(h*ng/mL)/(mg/kg) (Mice PK study): 3,120 (h*ng/mL)/(mg/kg) | DC50 (BTK): 0.46 nM | Dmax % (BTK): 96%

[2H]C([2H])([2H])n1cc(-c2ccnc(N3CCn4c(cc5c4CC(C)(C)C5)C3=O)c2CO)cc(Nc2ccc(N3CCN(C4CCN(c5ccc6c(c5)C(=O)N(C5CCC(=O)NC5=O)C6=O)CC4)C[C@@H]3C)cn2)c1=O (stereo partly drawn) [Example 22, 5-(4-((S)-4-(6-((2′-(7,7-dimethyl-1-oxo-1,3,4,6,7,8-hexahydro-2H-cyclopenta[4,5]pyrrolo[1,2-a]pyrazin-2-yl)-3′-(hydroxymethyl)-1-(methyl-d3)-6-oxo-1,6-dihydro-[3,4′-bipyridin]-5-yl)amino)pyridin-3-yl)-3-methylpiperazin-1-yl)piperidin-1-yl)-2-(2,6-dioxopiperidin-3-yl)isoindoline-1,3-dione]
oral PK profile (comparison) (Mice PK study; oral): better oral PK profile than Example 2 | AUCinf(h*ng/mL)/(mg/kg) (Mice PK study): 3,822 (h*ng/mL)/(mg/kg) | DC50 (BTK): 1.1 nM | Dmax (BTK): 98%
